Literature values as cited in Sander's compilation of Henry's law constants.
Where “and” joins values, the source holds several entries; their conditions need not be identical. Identical values can stand only once. Each block holds one compound with its values, some of them ahead of it.

Assay: Henry solubility constant Hcp at 298.15 K (mol/(m3 Pa))
Conditions: cited value
[1] = reference: Burkholder et al. (2015)
[2] = reference: Burkholder et al. (2019)
[3] = reference: Sander et al. (2006)
[4] = reference: Sander et al. (2011)
[5] = reference: Barcelo and Hennion (1997)
[6] = reference: Mackay et al. (1995)
[7] = reference: Fogg and Sangster (2003)
[8] = reference: Gaffney and Senum (1984)

Structure (SMILES): CS [methanethiol]
Henry solubility constant Hcp [1]: 0.0038
Henry solubility constant Hcp [2]: 0.0038
Henry solubility constant Hcp (reference: Goldstein (1982)): 0.0026
Henry solubility constant Hcp [3]: 0.0038
Henry solubility constant Hcp [4]: 0.0038

Henry solubility constant Hcp (reference: Brockbank (2013)): 2.2
Structure (SMILES): NC1CCCCC1 [cyclohexanamine]

Structure (SMILES): CCOP(=S)(OCC)Oc1ccc([N+](=O)[O-])cc1 [parathion]
Henry solubility constant Hcp [5]: 0.8
Henry solubility constant Hcp (reference: MacBean (2012b)): 33

Henry solubility constant Hcp (reference: Brockbank (2013)): 0.025
Structure (SMILES): CCC(C)C=O (stereo unspecified) [2-methylbutanal]

Henry solubility constant Hcp (reference: Brockbank (2013)): 0.28
Structure (SMILES): CCCCCCCN [1-heptanamine]

Henry solubility constant Hcp (reference: Brockbank (2013)): 0.012
Structure (SMILES): CC(=O)OC(C)(C)C [1,1-dimethylethyl ethanoate]

Henry solubility constant Hcp (reference: Brockbank (2013)): 0.061
Henry solubility constant Hcp (reference: Pierotti et al. (1959)): 0.057
Structure (SMILES): COCOC [dimethoxymethane]

Structure (SMILES): FC(F)Cl [chlorodifluoromethane]
Henry solubility constant Hcp [1]: 0.00035
Henry solubility constant Hcp [2]: 0.00035
Henry solubility constant Hcp [4]: 0.00034

Structure (SMILES): CC(C)Br [2-bromopropane]
Henry solubility constant Hcp (reference: Brockbank (2013)): 0.0009

Structure (SMILES): ClC1=C(Cl)[C@]2(Cl)C3C(Cl)C(Cl)CC3[C@@]1(Cl)C2(Cl)Cl (stereo partly specified) [chlordane]
Henry solubility constant Hcp [5]: 0.0011

Structure (SMILES): CCCBr [1-bromopropane]
Henry solubility constant Hcp (reference: Brockbank (2013)): 0.0011

Structure (SMILES): c1ccc2cc3cc4ccccc4cc3cc2c1 [naphthacene]
Henry solubility constant Hcp (reference: Mackay et al. (1992b)): 250

Henry solubility constant Hcp (reference: Goldstein (1982)): 140
Henry solubility constant Hcp (reference: Howard (1989)): 140
Structure (SMILES): O=C(O)c1ccccc1 [benzenecarboxylic acid]

Henry solubility constant Hcp (reference: Brockbank (2013)): 0.53
Structure (SMILES): CCCCCCCO [1-heptanol]

Henry solubility constant Hcp (reference: Brockbank (2013)): 3.1e-06
Structure (SMILES): CC(C)CCC(C)C [2,5-dimethylhexane]

Henry solubility constant Hcp (reference: Brockbank (2013)): 2e-05
Structure (SMILES): C=CCCCCC [1-heptene]

Structure (SMILES): O=C(O)CCCC(=O)O [pentanedioic acid]
Henry solubility constant Hcp [1]: 3.8e+07
Henry solubility constant Hcp [2]: 3.8e+07

Structure (SMILES): CCCCCCOC(=O)c1ccccc1C(=O)OCCCCCC [dihexyl phthalate]
Henry solubility constant Hcp (reference: Brockbank (2013)): 8.3

Structure (SMILES): CCOP(=S)(OCC)SCCSCC [disulfoton]
Henry solubility constant Hcp [5]: 0.045
Henry solubility constant Hcp (reference: Muir et al. (2004)): 11

Henry solubility constant Hcp (reference: Clever (1979b)): 9.1e-05
Structure (SMILES): [Rn] [radon]

Structure (SMILES): CNC(=O)O/N=C/C(C)(C)SC [aldicarb]
Henry solubility constant Hcp [5]: 31

Structure (SMILES): CCCC[N+](=O)[O-] [1-nitrobutane]
Henry solubility constant Hcp (reference: Brockbank (2013)): 0.076

Structure (SMILES): CC1CO1 (stereo unspecified) [1,2-epoxypropane]
Henry solubility constant Hcp (reference: Goldstein (1982)): 0.052 and 0.051

Structure (SMILES): CCCCc1ccccc1 [butylbenzene]
Henry solubility constant Hcp (reference: Brockbank (2013)): 0.00071

Henry solubility constant Hcp (reference: Brockbank (2013)): 3100
Structure (SMILES): CN1CCCC1=O [N-methyl-2-pyrrolidone]

Structure (SMILES): C=CC#N [2-propenenitrile]
Henry solubility constant Hcp (reference: Brockbank (2013)): 0.1
Henry solubility constant Hcp (reference: Goldstein (1982)): 0.11
Henry solubility constant Hcp [6]: 0.11

Structure (SMILES): CCOCCOC(C)=O [2-ethoxyethyl ethanoate]
Henry solubility constant Hcp (reference: Brockbank (2013)): 3

Structure (SMILES): CCOP(=O)(SC(C)CC)N1CCSC1=O (stereo unspecified) [fosthiazate-1]
Henry solubility constant Hcp (reference: MacBean (2012b)): 75

Structure (SMILES): CC#N [ethanenitrile]
Henry solubility constant Hcp (reference: Arijs and Brasseur (1986)): 0.47
Henry solubility constant Hcp (reference: Brockbank (2013)): 0.49
Henry solubility constant Hcp [1]: 0.52
Henry solubility constant Hcp [2]: 0.52
Henry solubility constant Hcp [7]: 0.5
Henry solubility constant Hcp [8]: 0.29
Henry solubility constant Hcp (reference: Hine and Weimar (1965)): 0.29
Henry solubility constant Hcp (reference: Plyasunov et al. (2006)): 0.38
Henry solubility constant Hcp [3]: 0.52
Henry solubility constant Hcp [4]: 0.52

Structure (SMILES): c1ccc2c(c1)Cc1ccccc1-2 [2,3-benzindene]
Henry solubility constant Hcp (reference: Brockbank (2013)): 0.13
Henry solubility constant Hcp [7]: 0.11
Henry solubility constant Hcp (reference: Goldstein (1982)): 0.084
Henry solubility constant Hcp (reference: HSDB (2015)): 0.099
Henry solubility constant Hcp (reference: McCarty (1980)): 0.047

Structure (SMILES): Cc1ccccc1 [methylbenzene]
Henry solubility constant Hcp (reference: Brockbank (2013)): 0.0019
Henry solubility constant Hcp (reference: Goldstein (1982)): 0.0015
Henry solubility constant Hcp (reference: McAuliffe (1971)): 0.0015

Henry solubility constant Hcp (reference: Brockbank (2013)): 0.011
Structure (SMILES): CCCCCCCCC=O [nonanal]

Henry solubility constant Hcp [7]: 0.0029
Structure (SMILES): COC(F)(F)C(Cl)Cl [2,2-dichloro-1,1-difluoro-1-methoxyethane]

Henry solubility constant Hcp [5]: 0.01
Structure (SMILES): CCCN(CCC)C(=O)SCC [S-ethyl dipropylthiocarbamate]

Henry solubility constant Hcp (reference: Brockbank (2013)): 0.0027
Structure (SMILES): Cc1ccc(Cl)cc1 [1-chloro-4-methylbenzene]

Henry solubility constant Hcp (reference: Brockbank (2013)): 2.9e-06
Structure (SMILES): CCCCC(C)C [2-methylhexane]

Henry solubility constant Hcp (reference: Brockbank (2013)): 1.2
Structure (SMILES): Cc1cccnc1 [3-methylpyridine]

Structure (SMILES): C#CC(C)(C)NC(=O)c1cc(Cl)cc(Cl)c1 [propyzamide]
Henry solubility constant Hcp [5]: 0.052

Henry solubility constant Hcp (reference: Brockbank (2013)): 2.5
Structure (SMILES): CCCCOCCOCCOCCCC [diethylene glycol dibutyl ether]

Henry solubility constant Hcp (reference: Brockbank (2013)): 0.039
Structure (SMILES): C=CCN(CC=C)CC=C [N,N-di-2-propenyl-2-propen-1-amine]

Structure (SMILES): O=[O+][O-] [ozone]
Henry solubility constant Hcp (reference: Biń (2005)): 7.6e-05
Henry solubility constant Hcp [1]: 0.0001
Henry solubility constant Hcp [2]: 0.0001
Henry solubility constant Hcp (reference: Perry and Chilton (1973)): 0.00012
Henry solubility constant Hcp [3]: 0.0001
Henry solubility constant Hcp [4]: 0.0001
Henry solubility constant Hcp (reference: Warneck (2003)): 0.00011

Henry solubility constant Hcp [7]: 0.00054
Structure (SMILES): C=COCC(F)(F)F [(2,2,2-trifluoroethoxy)-ethene]

Structure (SMILES): NCl [chloramine]
Henry solubility constant Hcp [1]: 0.86
Henry solubility constant Hcp [2]: 0.86
Henry solubility constant Hcp [3]: 0.86
Henry solubility constant Hcp [4]: 0.86

Henry solubility constant Hcp (reference: Brockbank (2013)): 0.017
Structure (SMILES): CCCCCOC(=O)CCC [pentyl butanoate]

Henry solubility constant Hcp (reference: Brockbank (2013)): 3.4e-06
Structure (SMILES): CCCCCCCC [octane]

Structure (SMILES): Cc1cc(C)cc(C)c1 [1,3,5-trimethylbenzene]
Henry solubility constant Hcp (reference: Brockbank (2013)): 0.0012

Structure (SMILES): C=CC=O [propenal]
Henry solubility constant Hcp (reference: Brockbank (2013)): 0.072
Henry solubility constant Hcp [8]: 0.081
Henry solubility constant Hcp (reference: Goldstein (1982)): 0.1
Henry solubility constant Hcp (reference: Howard (1989)): 2.2

Structure (SMILES): Nc1ccc(-c2ccc(N)cc2)cc1 [benzidine]
Henry solubility constant Hcp [6]: 25

Henry solubility constant Hcp (reference: Brockbank (2013)): 7.3e-05
Structure (SMILES): C1CCCCCCC1 [cyclooctane]

Structure (SMILES): ClC1=C(Cl)[C@]2(Cl)[C@@H]3[C@@H]4C[C@@H]([C@H]5O[C@@H]45)[C@@H]3[C@@]1(Cl)C2(Cl)Cl [dieldrin]
Henry solubility constant Hcp [5]: 0.0088

Structure (SMILES): Nc1ccccc1Cl [1-amino-2-chlorobenzene]
Henry solubility constant Hcp (reference: Brockbank (2013)): 1.9

Structure (SMILES): CC(=O)OCC(F)(F)F [2,2,2-trifluoroethyl ethanoate]
Henry solubility constant Hcp [1]: 0.0055
Henry solubility constant Hcp [2]: 0.0055
Henry solubility constant Hcp [4]: 0.0055

Henry solubility constant Hcp (reference: Brockbank (2013)): 0.22
Structure (SMILES): CC(C)CC(C)O (stereo unspecified) [4-methyl-2-pentanol]

Henry solubility constant Hcp (reference: Brockbank (2013)): 2.6e-05
Structure (SMILES): C[C@@H]1CCCC[C@@H]1C [cis-1,2-dimethylcyclohexane]

Structure (SMILES): COc1ccc(NC(=O)N(C)C)cc1Cl [metoxuron]
Henry solubility constant Hcp [5]: 6.6

Structure (SMILES): S=C=S [carbon disulfide]
Henry solubility constant Hcp [1]: 0.00061
Henry solubility constant Hcp [2]: 0.00061
Henry solubility constant Hcp (reference: Goldstein (1982)): 0.00075
Henry solubility constant Hcp [3]: 0.00061
Henry solubility constant Hcp [4]: 0.00061

Henry solubility constant Hcp (reference: Brockbank (2013)): 0.92
Structure (SMILES): Cc1cccc(C)n1 [2,6-dimethylpyridine]

Henry solubility constant Hcp (reference: Brockbank (2013)): 0.089
Henry solubility constant Hcp (reference: Cabani et al. (1981)): 0.13
Henry solubility constant Hcp (reference: Howard (1993)): 0.11
Structure (SMILES): CCC(=O)CC [3-pentanone]

Henry solubility constant Hcp (reference: Brockbank (2013)): 0.86
Henry solubility constant Hcp (reference: Dohnal et al. (2006)): 1
Structure (SMILES): CCCCCO [1-pentanol]

Henry solubility constant Hcp (reference: Brockbank (2013)): 0.1
Structure (SMILES): CC(=O)OC1CCCCC1 [cyclohexyl ethanoate]

Structure (SMILES): CCOP(=S)(NC(C)C)Oc1ccccc1C(=O)OC(C)C (stereo unspecified) [isofenphos]
Henry solubility constant Hcp [5]: 1000
Henry solubility constant Hcp (reference: MacBean (2012b)): 240

Structure (SMILES): CC(=O)C(F)(F)F [1,1,1-trifluoro-2-propanone]
Henry solubility constant Hcp [1]: 1.4
Henry solubility constant Hcp [2]: 1.4
Henry solubility constant Hcp [4]: 1.4

Structure (SMILES): BrCBr [dibromomethane]
Henry solubility constant Hcp (reference: Brockbank (2013)): 0.012
Henry solubility constant Hcp [2]: 0.012
